Results: publication PMC10100968, “The Role of Glutamine Synthetase in Regulating Ammonium Assimilation and Iron-Only Nitrogenase Expression in a Photosynthetic Diazotroph” (Microbiology Spectrum, 2023)

How the values were obtained:
[1] = target: T1, GlnA1 (Rhodopseudomonas palustris, UniProt Q6N5K7); assay: gamma-glutamylhydroxamate formation, absorbance at […] nm; type: biochemical; settings: 10 mM ATP, 40 mM MgSO4, 10 mM cysteine, 1 mM EDTA, pH 7.5, 30 °C, deadenylylated enzyme from nitrogen-limited cells
T1 construct: gene glnA; GSI dodecamer; adenylylated at Tyr398 when made in nitrogen-replete medium

[2] = target: T2, GlnA1 (Rhodopseudomonas palustris, UniProt Q6N5K7, Y398A); assay: as above; type: biochemical; settings: 10 mM ATP, 40 mM hydroxylamine, 40 mM MgSO4, 10 mM cysteine, 1 mM EDTA, pH 7.5, 30 °C; enzyme from LB-grown cells
T2 construct: gene glnA; GSI dodecamer; adenylylated at Tyr398 when made in nitrogen-replete medium
T2 sequence (Q6N5K7 entry or part of it Y398A): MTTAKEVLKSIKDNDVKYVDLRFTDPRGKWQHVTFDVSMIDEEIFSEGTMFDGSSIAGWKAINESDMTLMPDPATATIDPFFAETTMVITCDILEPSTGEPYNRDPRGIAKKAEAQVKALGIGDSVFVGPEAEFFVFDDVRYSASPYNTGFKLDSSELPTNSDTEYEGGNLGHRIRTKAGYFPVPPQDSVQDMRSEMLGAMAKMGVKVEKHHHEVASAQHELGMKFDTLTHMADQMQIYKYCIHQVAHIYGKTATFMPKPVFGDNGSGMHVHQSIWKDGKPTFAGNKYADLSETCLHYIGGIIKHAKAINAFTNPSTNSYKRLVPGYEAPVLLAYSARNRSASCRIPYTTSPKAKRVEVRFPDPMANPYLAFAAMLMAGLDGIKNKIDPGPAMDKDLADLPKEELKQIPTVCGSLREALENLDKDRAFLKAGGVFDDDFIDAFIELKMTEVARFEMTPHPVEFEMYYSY

T1 sequence (Q6N5K7 entry or part of it): as the sequence (Q6N5K7 entry or part of it Y398A) above, with A398Y counted along it

N[C@@H](CCC(=O)O)C(=O)O [l-glutamate]
specific activity ([1]; 40 mM hydroxylamine): A large proportion of GlnA1 was deadenylated via mass spectrometric analysis | specific activity [2]: GlnA1^Y398A purified from E. coli cells that were grown in LB medium showed a significantly

NO [hydroxylamine]
specific activity ([1]; 10 mM L-glutamate): A large proportion of GlnA1 was deadenylated via mass spectrometric analysis
